Legend:
Experiment in all cases: relative viability (nuclei count vs DMSO), 5 days (fraction); higher = more cells survive
CUDC-101 + Navitoclax = compound: C#Cc1cccc(Nc2ncnc3cc(OC)c(OCCCCCCC(=O)NO)cc23)c1 [CUDC-101] + CC1(C)CCC(c2ccc(Cl)cc2)=C(CN2CCN(c3ccc(C(=O)NS(=O)(=O)c4ccc(N[C@H](CCN5CCOCC5)CSc5ccccc5)c(S(=O)(=O)C(F)(F)F)c4)cc3)CC2)C1 [Navitoclax] (partner 0.5 µM)
In short: (§1)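 Relative viability is defined as nuclei in treated wells over nuclei in vehicle wells. Duplicate plates were run and medians reported. Lung cancer cell lines in 1536-well plates were dosed by pin tool one day after seeding, with one drug or with a fixed anchor-drug dose plus five library-drug doses (not always all listed) in √10 steps, and nuclei were counted after 5 days.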

NVP-TAE684 + Crizotinib = compound: COc1cc(N2CCC(N3CCN(C)CC3)CC2)ccc1Nc1ncc(Cl)c(Nc2ccccc2S(=O)(=O)C(C)C)n1 [NVP-TAE684] + C[C@@H](Oc1cc(-c2cnn(C3CCNCC3)c2)cnc1N)c1c(Cl)ccc(F)c1Cl [Crizotinib] (partner 1 µM)
In short: as §1

[1] = compound: C1=CC=C2C(=C1)N=C(S2)C(C#N)C3=NC(=NC=C3)NCCC4=CN=CC=C4 + C[C@]1(O)C[C@@H](c2nc(-c3ccc4ccc(-c5ccccc5)nc4c3)c3c(N)nccn32)C1 [Linsitinib] (partner 1 µM)
In short: as §1

Vandetanib + Tozasertib = compound: COc1cc2/c(=N/c3ccc(Br)cc3F)nc[nH]c2cc1OCC1CCN(C)CC1 [Vandetanib] + Cc1cc(Nc2cc(N3CCN(C)CC3)nc(Sc3ccc(NC(=O)C4CC4)cc3)n2)n[nH]1 [Tozasertib] (partner 0.1 µM)
In short: as §1

Row | Cell Line | relative viability (CUDC-101 + Navitoclax; first compound 0.01 µM) | relative viability (CUDC-101 + Navitoclax; first compound 0.03162 µM) | relative viability (CUDC-101 + Navitoclax; first compound 0.1 µM) | relative viability (CUDC-101 + Navitoclax; first compound 0.3162 µM) | relative viability (CUDC-101 + Navitoclax; first compound 1 µM) | relative viability (NVP-TAE684 + Crizotinib; first compound 0.6325 µM) | relative viability (NVP-TAE684 + Crizotinib; first compound 2 µM) | relative viability ([1]; first compound 0.005 µM) | relative viability ([1]; first compound 0.01581 µM) | relative viability ([1]; first compound 0.05 µM) | relative viability ([1]; first compound 0.1581 µM) | relative viability ([1]; first compound 0.5 µM) | relative viability (Vandetanib + Tozasertib; first compound 0.02 µM) | relative viability (Vandetanib + Tozasertib; first compound 0.06325 µM) | relative viability (Vandetanib + Tozasertib; first compound 0.2 µM) | relative viability (Vandetanib + Tozasertib; first compound 0.6325 µM) | relative viability (Vandetanib + Tozasertib; first compound 2 µM) | relative viability (NVP-TAE684 + Crizotinib; first compound 0.2 µM)
1 | NCI-H1734 | 0.959 | 0.82 | 0.917 | 0.911 | 0.501 | 0.7 | 0.424 | 0.779 | 0.939 | 0.881 | 0.946 | 0.797 | 0.24 | 0.289 | 0.14 | 0.216 | 0.261 | –
2 | NCI-H1755 | 0.984 | 1.01 | 0.995 | 1.02 | 0.951 | 0.893 | 0.681 | 0.968 | 1.05 | 0.976 | 1.07 | 0.908 | 0.581 | 0.568 | 0.648 | 0.536 | 0.567 | 0.991
3 | NCI-H1915 | 0.796 | 0.793 | 0.804 | 0.743 | 0.743 | 0.921 | 0.858 | 1.08 | 1.09 | 1.09 | 1.18 | 1.13 | 0.424 | 0.422 | 0.438 | 0.419 | 0.412 | 0.922
4 | NCI-H1944 | 1.02 | 1.03 | 1.01 | 1.09 | 0.861 | 1.03 | 0.933 | 1.09 | 1.25 | 1.2 | 1.34 | 1.2 | 0.262 | 0.265 | 0.235 | 0.239 | 0.243 | 1.07
5 | NCI-H1975 | 1.32 | 1.09 | 1.19 | 1.27 | 1.13 | 1.1 | 0.227 | 0.823 | 1.07 | 0.972 | 1.07 | 0.738 | 0.771 | 0.714 | 0.0829 | 0.685 | 0.74 | 0.978
6 | NCI-H1993 | 0.827 | 0.884 | 0.743 | 0.771 | 0.558 | 0.709 | 0.548 | 0.861 | 0.784 | 0.749 | 0.749 | 0.681 | 0.639 | 0.601 | 0.481 | 0.561 | 0.521 | –
7 | NCI-H2009 | 1.23 | 1.05 | 1.18 | 1.16 | 1.1 | 0.968 | 0.788 | 1.15 | 1.22 | 1.22 | 1.25 | 1.07 | 0.733 | 0.704 | 0.419 | 0.735 | 0.786 | 1.07
8 | NCI-H2023 | 1.02 | 0.983 | 0.993 | 1 | 0.964 | 0.45 | 0.144 | 0.743 | 0.695 | 0.68 | 0.671 | 0.701 | 0.436 | 0.31 | 0.217 | 0.298 | 0.337 | 0.549
9 | NCI-H2085 | 1.11 | 1.26 | 1.18 | 1.16 | 1.02 | 0.872 | 0.55 | 0.694 | 0.978 | 0.867 | 1.04 | 0.839 | 0.793 | 0.755 | 0.472 | 0.774 | 0.725 | 0.788
10 | NCI-H2087 | 0.945 | 1.07 | 1.04 | 0.98 | 0.727 | 1.14 | 0.642 | 1.03 | 0.954 | 1.07 | 1.1 | 0.915 | 0.252 | 0.266 | 0.0945 | 0.278 | 0.262 | 0.942

Source: the supplement of paper PMC10307832
